Like-named read-outs stand apart in the source and are kept apart here.
Columns and labels:
TBK1 = biological target: T1, TBK1 (Homo sapiens, UniProt Q9UHD2); test: In-vitro TBK1 kinase assay ([γ33]ATP filter-plate); type: biochemical
T1 construct: His-tag; made in house; host or cells: Sf9 insect cells
T1 sequence (Q9UHD2 1-729): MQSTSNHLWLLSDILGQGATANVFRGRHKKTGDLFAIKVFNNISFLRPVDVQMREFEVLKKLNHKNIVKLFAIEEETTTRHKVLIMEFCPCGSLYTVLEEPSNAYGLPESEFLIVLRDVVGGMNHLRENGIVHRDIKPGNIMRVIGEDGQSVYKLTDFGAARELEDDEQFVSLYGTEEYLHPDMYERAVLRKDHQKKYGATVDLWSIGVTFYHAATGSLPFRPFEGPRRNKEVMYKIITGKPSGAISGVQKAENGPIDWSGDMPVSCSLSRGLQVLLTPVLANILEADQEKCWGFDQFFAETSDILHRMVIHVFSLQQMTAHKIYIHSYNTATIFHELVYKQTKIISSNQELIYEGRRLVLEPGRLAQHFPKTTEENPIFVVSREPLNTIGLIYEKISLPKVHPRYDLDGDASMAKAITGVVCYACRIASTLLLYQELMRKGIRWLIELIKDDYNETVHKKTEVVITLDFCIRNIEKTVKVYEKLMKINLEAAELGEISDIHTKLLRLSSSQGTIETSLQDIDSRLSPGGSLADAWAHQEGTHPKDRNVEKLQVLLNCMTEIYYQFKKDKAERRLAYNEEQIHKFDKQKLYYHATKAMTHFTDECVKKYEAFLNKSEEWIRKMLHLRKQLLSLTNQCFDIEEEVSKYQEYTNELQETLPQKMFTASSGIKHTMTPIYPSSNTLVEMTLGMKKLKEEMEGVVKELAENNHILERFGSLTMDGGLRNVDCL
In short: (§1)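 His-tagged IKKε and TBK1 from Sf9 cells were assayed with myelin basic protein or casein and [γ33]ATP at 2×Km ATP (32 μM for IKKε, 60 μM for TBK1). Enzyme was 0.1 or 0.015 μg/ml for IKKε and 0.1 or 0.02 μg/ml for TBK1 (normal/sensitized). Reactions ran 30-45 min, were filter-captured, scintillation-counted, and normalized to DMSO after background subtraction.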

[1] = tested on: IKKε-mediated phosphorylation of IRF3; test: In-situ phosphorylation of IRF3 (pIRF3 Ser396 ELISA) in HEK293T cells cotransfected with IRF3 and IKKε; type: cell-based; settings: Homo sapiens, HEK-293T
In short: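 For the IRF3 ELISA, HEK293T cells cotransfected with IRF3 and IKKε were replated at 20,000/well and treated 20 h. Phospho-Ser396 IRF3 was measured by ELISA and normalised to DMSO, with viability checked by CellTiter-Glo. For IRF7, cells transfected with IRF7 and TBK1 were treated overnight, and pSer477/Ser479 IRF7 was detected by Western blot.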

IKKε = biological target: T2, IKKε (Homo sapiens, UniProt Q14164); test: In-vitro IKKε kinase assay ([γ33]ATP filter-plate); type: biochemical
T2 construct: His-tag; made in house; host or cells: Sf9 insect cells
T2 sequence (Q14164 1-716): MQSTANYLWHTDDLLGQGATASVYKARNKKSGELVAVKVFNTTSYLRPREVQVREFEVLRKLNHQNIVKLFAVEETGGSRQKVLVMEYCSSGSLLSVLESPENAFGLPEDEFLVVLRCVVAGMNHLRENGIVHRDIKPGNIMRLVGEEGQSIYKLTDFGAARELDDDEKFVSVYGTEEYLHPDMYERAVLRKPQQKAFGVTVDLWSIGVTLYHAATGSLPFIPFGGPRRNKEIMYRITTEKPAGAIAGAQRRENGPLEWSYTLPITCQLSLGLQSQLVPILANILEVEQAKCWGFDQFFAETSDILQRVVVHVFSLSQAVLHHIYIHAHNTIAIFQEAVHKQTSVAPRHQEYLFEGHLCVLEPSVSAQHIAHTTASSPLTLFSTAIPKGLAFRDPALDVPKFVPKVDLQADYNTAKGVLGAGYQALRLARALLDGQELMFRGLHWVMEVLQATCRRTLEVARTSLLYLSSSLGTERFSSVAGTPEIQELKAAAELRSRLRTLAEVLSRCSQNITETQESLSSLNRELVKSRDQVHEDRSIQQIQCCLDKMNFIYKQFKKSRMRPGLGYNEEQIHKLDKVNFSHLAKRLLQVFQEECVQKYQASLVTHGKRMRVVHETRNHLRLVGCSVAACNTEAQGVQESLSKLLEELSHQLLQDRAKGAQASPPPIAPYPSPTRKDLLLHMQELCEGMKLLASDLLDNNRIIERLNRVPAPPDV
In short: as §1

[2] = text bins, read-out: IC50 for inhibition of the kinase activity of TBK1
[3] = HEK293T cells, 20 hours, text bins, read-out: IC50 for inhibition of the in-situ IKKε-mediated phosphorylation of IRF3
[4] = text bins, read-out: IC50 for inhibition of the kinase activity of IKKε
[5] = HEK293T cells in culture, Table 3, read-out: pIRF3 ELISA IC50

| Compound | IC50 (TBK1; [2]) | IC50 [1, 3] | IC50 (IKKε; [4]) | IC50 (TBK1; Table 3, read-out: TBK1 IC50) | IC50 [1, 5] | IC50 (IKKε; Table 3, read-out: IKKε IC50) |
| --- | --- | --- | --- | --- | --- | --- |
| COc1cc(Nc2nccc(-c3ccc(OC4CCOCC4)c(C#N)c3)n2)ccc1OCCCN1CCN(C)CC1 [Example 256, 5-[2-({3-methoxy-4-[3-(4-methylpiperazin-1-yl)propoxy]phenyl}amino)pyrimidin-4-yl]-2-(tetrahydro-2H-pyran-4-yloxy)benzonitrile] | < 10 nM | 100 to 250 nM | < 5 nM | – | – | – |
| N#Cc1cc(-c2ccnc(Nc3ccc(CO)cc3)n2)ccc1OC1CCOCC1 [compound 499, 5-(2-{[4-(hydroxymethyl)phenyl]amino}pyrimidin-4-yl)-2-(tetrahydro-2H-pyran-4-yloxy)benzonitrile] | < 10 nM | 100 to 250 nM | 5 to 50 nM | 0.5 nM | 142 nM | 5.1 nM |
| COc1cc(Nc2nccc(-c3ccc(OC4CCOCC4)c(C#N)c3)n2)ccc1C(=O)N1CC(OC)C1 [compound 484, 5-[2-({3-Methoxy-4-[(3-methoxyazetidin-1-yl)carbonyl]phenyl}amino)pyrimidin-4-yl]-2-(tetrahydro-2H-pyran-4-yloxy)benzonitrile] | 10 to 100 nM | < 100 nM | < 5 nM | – | – | – |
| COc1cc(Nc2nccc(-c3ccc(OC4CCOCC4)c(C#N)c3)n2)ccc1OCCOCCNS(C)(=O)=O [Example 22] | < 10 nM | < 100 nM | < 5 nM | – | – | – |
| COC1CN(Cc2ccc(Nc3nccc(-c4ccc(OC5CCOCC5)c(C#N)c4)n3)cc2)C1 [compound 487] | < 10 nM | < 100 nM | < 5 nM | – | – | – |
| COCCOC1CN(C(=O)c2ccc(Nc3nccc(-c4ccc(OC5CCOCC5)c(C#N)c4)n3)cc2OC)C1 [compound 632, 5-{2-[(3-Methoxy-4-{[3-(2-methoxyethoxy)azetidin-1-yl]carbonyl}phenyl)amino]pyrimidin-4-yl}-2-(tetrahydro-2H-pyran-4-yloxy)benzonitrile] | < 10 nM | < 100 nM | < 5 nM | 0.4 nM | 22.8 nM | 0.5 nM |
| CC1(COc2ccc(-c3ccnc(Nc4ccc(N5CCN(CCO)CC5)cc4)n3)cc2C#N)COC1 [compound 437, 5-[2-({4-[4-(2-Hydroxyethyl)piperazin-1-yl]phenyl}amino)pyrimidin-4-yl]-2-[(3-methyloxetan-3-yl)methoxy] benzonitrile] | < 10 nM | 100 to 250 nM | < 5 nM | – | – | – |
| COc1cc(Nc2nccc(-c3ccc(NC(=O)C(C)C)c(C#N)c3)n2)ccc1N1CCOCC1 [Example 75, N-[2-cyano-4-(2-{[3-methoxy-4-(morpholin-4-yl)phenyl]amino}pyrimidin-4-yl)phenyl]-2-methylpropanamide] | < 10 nM | 250 to 500 nM | < 5 nM | – | – | – |
| COc1ccc(Nc2nccc(-c3ccc(OC4CCOCC4)c(C#N)c3)n2)cc1OCCCN1CCNCC1 [compound 526, 5-[2-({4-methoxy-3-[3-(piperazin-1-yl)propoxy]phenyl}amino)pyrimidin-4-yl]-2-(tetrahydro-2H-pyran-4-yloxy)benzonitrile] | < 10 nM | 100 to 250 nM | < 5 nM | – | – | – |
| COCCNC(=O)c1ccc(Nc2nccc(-c3ccc(NC(=O)C4CC4)c(C#N)c3)n2)cc1 [compound 537] | 10 to 100 nM | 100 to 250 nM | 5 to 50 nM | – | – | – |
| COc1ccc(Nc2nccc(-c3ccc(OC4CCOCC4)c(C#N)c3)n2)cc1OCCCN1CCOCC1 [compound 529, 5-[2-({4-methoxy-3-[3-(morpholin-4-yl)propoxy]phenyl}amino)pyrimidin-4-yl]-2-(tetrahydro-2H-pyran-4-yloxy)benzonitrile] | < 10 nM | < 100 nM | < 5 nM | – | – | – |
| N#Cc1cc(-c2ccnc(Nc3ccc(N4CCN(CCO)CC4)cc3)n2)ccc1OCC1CC1 [compound 439, 2-(Cyclopropylmethoxy)-5-[2-({4-[4-(2-hydroxyethyl)piperazin-1-yl]phenyl}amino)pyrimidin-4-yl]benzonitrile] | < 10 nM | < 100 nM | < 5 nM | 0.3 nM | 8 nM | 0.4 nM |
| COc1ccc(Nc2nccc(-c3ccc(OC4CCOCC4)c(C#N)c3)n2)cc1OCCOCCN [Example 32, 5-[2-({3-[2-(2-aminoethoxy)ethoxy]-4-methoxyphenyl}amino)pyrimidin-4-yl]-2-(tetrahydro-2H-pyran-4-yloxy)benzonitrile] | < 10 nM | 100 to 250 nM | < 5 nM | – | – | – |
| Cc1ccc(Nc2nccc(-c3ccc(OC4CCOCC4)c(C#N)c3)n2)cc1OCCN1CCNCC1 [compound 533, 5-[2-({4-Methyl-3-[2-(piperazin-1-yl)ethoxy]phenyl}amino)pyrimidin-4-yl]-2-(tetrahydro-2H-pyran-4-yloxy)benzonitrile] | < 10 nM | < 100 nM | < 5 nM | – | – | – |
| COc1cc(Nc2nccc(-c3ccc(OC4CCOCC4)c(C#N)c3)n2)ccc1OCCCS(=O)(=O)N1CCN(C)CC1 [Example 25, 5-{2-[(3-methoxy-4-{3-[(4-methylpiperazin-1-yl)sulfonyl]propoxy}phenyl)amino]pyrimidin-4-yl}-2-(tetrahydro-2H-pyran-4-yloxy)benzonitrile] | < 10 nM | 100 to 250 nM | < 5 nM | – | – | – |
| CCN1CCN(CCCOc2cc(Nc3nccc(-c4ccc(OC5CCOCC5)c(C#N)c4)n3)ccc2OC)CC1 [compound 525, 5-[2-({3-[3-(4-ethylpiperazin-1-yl)propoxy]-4-methoxyphenyl}amino)pyrimidin-4-yl]-2-(tetrahydro-21H-pyran-4-yloxy)benzonitrile] | < 10 nM | < 100 nM | < 5 nM | – | – | – |
| CC(C)COc1ccc(-c2ccnc(Nc3ccc(N4CCOCC4)cc3)n2)cc1C#N [Example 264, 2-(2-Methylpropoxy)-5-(2-{[4-(morpholin-4-yl)phenyl]amino}pyrimidin-4-yl)benzonitrile] | < 10 nM | – | < 5 nM | 0.2 nM | 654 nM | 0.6 nM |
| CC(C)(C)CC(=O)Nc1ccc(-c2ccnc(Nc3ccc(N4CCOCC4)cc3)n2)cc1C#N [Example 202, N-[2-cyano-4-(2-{[4-(morpholin-4-yl)phenyl]amino}pyrimidin-4-yl)phenyl]-3,3-dimethylbutanamide] | < 10 nM | 100 to 250 nM | 5 to 50 nM | – | – | – |
| N#Cc1cc(-c2ccnc(Nc3ccc(CN4CCN(CCO)CC4)cc3)n2)ccc1OC1CCOCC1 [compound 511, 5-{2-[(4-{[4-(2-hydroxyethyl)piperazin-1-yl]methyl}phenyl)amino]pyrimidin-4-yl}-2-(tetrahydro-2H-pyran-4-yloxy)benzonitrile] | < 10 nM | 100 to 250 nM | < 5 nM | – | – | – |

Reference: patent publication US20150352108A1, “AMINO-PYRIMIDINE COMPOUNDS AS INHIBITORS OF TBK1 AND/OR IKK EPSILON” (Alzheimer's Institute of America, priority 2009, published 2015)
